In ChEMBL document CHEMBL4400526, “Design, synthesis and anti-bacterial studies of piperazine derivatives against drug resistant bacteria” (2019) one finds MIC and MIC50 data, which are given here for 22 compounds.

The structures appear in SMILES notation. In brackets after ≈: the same amount, converted by molar mass. Activity calls are given as the source filed them. No cut-off for these calls is given here.

In general, MIC refers to the lowest concentration that inhibits growth of the organism. What is called MIC50 is an inhibitory concentration at the 50% level, which refers to growth in some studies and to a panel of isolates in others. Low values mean greater potency, high ones weaker potency.

What all share (assay type): functional
Assay [1] has as its system Staphylococcus aureus. In words: Antibacterial activity against Staphylococcus aureus ATCC 6538 measured after overnight incubation.
Another assay deals with Bacillus spizizenii. In words: Antibacterial activity against Bacillus subtilis ATCC 6633 measured after overnight incubation.
In assay [2] the test system is Escherichia coli. In words: Antibacterial activity against Escherichia coli ATCC 25922 measured after overnight incubation.
For assay [3], the system named is Pseudomonas aeruginosa. The assay can be described thus: Antibacterial activity against Pseudomonas aeruginosa ATCC 15442 measured after overnight incubation.
A further assay has as its system Streptococcus pyogenes. The assay can be described thus: Antibacterial activity against Streptococcus hemolyticus clinical isolates measured after overnight incubation.
Assay [4] concerns Escherichia coli. In words: Antibacterial activity against Escherichia coli clinical isolates measured after overnight incubation.
Assay [5] concerns Pseudomonas aeruginosa. The assay can be described thus: Antibacterial activity against Pseudomonas aeruginosa clinical isolates measured after overnight incubation.
The next assay has as its system Klebsiella pneumoniae. In words: Antibacterial activity against Klebsiella pneumoniae ATCC 1705 measured after overnight incubation. The settings on record: ATCC BAA-1705.
In assay [6] the test system is Staphylococcus aureus. The assay can be described thus: Antibacterial activity against methicillin-resistant Staphylococcus aureus clinical isolates measured after overnight incubation.
In assay [7] the test system is Staphylococcus epidermidis. In words: Antibacterial activity against Staphylococcus epidermidis.
Assay [8] relates to Staphylococcus aureus. The assay can be described thus: Antibacterial activity against Staphylococcus aureus.
For assay [9], the system named is Escherichia coli. In words: Antibacterial activity against Escherichia coli.

In the assay with Staphylococcus aureus [1], `CC[C@H]1OC(=O)[C@H](C)[C@@H](O[C@H]2C[C@@](C)(OC)[C@@H](O)[C@H](C)O2)[C@H](C)[C@@H](O[C@@H]2O[C@H](C)C[C@H](N(C)C)[C@H]2O)[C@](C)(O)C[C@@H](C)/C(=N\OCOCCOC)[C@H](C)[C@@H](O)[C@]1(C)O` [ROXITHROMYCIN] yielded an MIC of 0.039 µM.

`C=CC1=C(C(=O)O)N2C(=O)[C@@H](NC(=O)/C(=N\OCC(=O)O)c3csc(N)n3)[C@H]2SC1` [CEFIXIME]: the MIC came out at 0.06 µM with Bacillus spizizenii; 0.06 µM (≈ 0.0272 µg/mL) in the assay with Escherichia coli [2] (read-out: MIC); 0.06 µM (≈ 0.0272 µg/mL) in the assay with Pseudomonas aeruginosa [3] (read-out: MIC); 0.25 µg/mL against Streptococcus pyogenes; 0.75 µg/mL with Escherichia coli [4]; 0.5 µg/mL with Pseudomonas aeruginosa [5].

For the compound `NCC1(CC(=O)O)CCCCC1`, the MIC entry with Staphylococcus aureus [1], in the assay with Bacillus spizizenii, in the assay on Escherichia coli [2] and in the assay on Pseudomonas aeruginosa [3] was “inactive” in each case.

Turning to `O=C(O)CC1(CNCN2CCN(c3cc4c(cc3F)c(=O)c(C(=O)O)cn4C3CC3)CC2)CCCCC1`, the MIC against Bacillus spizizenii worked out at 62.1 µM; in the assay with Escherichia coli [2] (read-out: MIC) it was 15.5 µM (≈ 7.98 µg/mL); in the assay with Pseudomonas aeruginosa [3] (read-out: MIC), 15.5 µM (≈ 7.98 µg/mL); against Klebsiella pneumoniae, 15.5 µM (≈ 7.98 µg/mL); with Streptococcus pyogenes, 62.1 µM; against Escherichia coli [4], 7.7 µM. Besides, the MIC against Pseudomonas aeruginosa [5] came out at 7.7 µM.

On to `O=C(NNCN1CCN(c2cc3c(cc2F)c(=O)c(C(=O)O)cn3C2CC2)CC1)c1ccncc1`, for which the MIC stood at 4.1 µM against Staphylococcus aureus [1]; 7.7 µM in the assay with Bacillus spizizenii; 7.7 µM (≈ 3.7 µg/mL) with Escherichia coli [2] (read-out: MIC); 7.7 µM (≈ 3.7 µg/mL) in the assay on Pseudomonas aeruginosa [3] (read-out: MIC); 7.7 µM (≈ 3.7 µg/mL) against Klebsiella pneumoniae; 2 µM (≈ 0.961 µg/mL) in the assay with Staphylococcus aureus [6]. For the same compound, the MIC in the assay with Streptococcus pyogenes worked out at 8.3 µM; against Escherichia coli [4], 33.2 µM; in the assay with Pseudomonas aeruginosa [5] it was 33.2 µM.

In the case of `COc1cc(Cc2cnc(N)nc2N)cc(OC)c1OCCN1CCN(c2cc3c(cc2F)c(=O)c(C(=O)O)cn3C2CC2)CC1`, the MIC50 in assay [7] was found to be 0.5 µg/mL (≈ 0.789 µM); against Staphylococcus aureus [8], 0.5 µg/mL (≈ 0.789 µM); in the assay with Escherichia coli [9], 1 µg/mL (≈ 1.58 µM).

With `Nc1ccc(S(N)(=O)=O)cc1`, the MIC result in the assay with Staphylococcus aureus [1], in the assay on Bacillus spizizenii, in the assay on Escherichia coli [2] and with Pseudomonas aeruginosa [3] was “inactive” in each case.

With `NNC(=O)c1ccncc1`, the MIC result with Staphylococcus aureus [1], in the assay with Bacillus spizizenii, in the assay on Escherichia coli [2] and with Pseudomonas aeruginosa [3] was “inactive” throughout.

In the case of `O=C(O)CC1(CNCN2CCNCC2)CCCCC1`, the MIC with Staphylococcus aureus [1] came out at 119 µM; in the assay with Bacillus spizizenii, 119 µM; with Escherichia coli [2] (read-out: MIC), 238 µM (≈ 64 µg/mL); with Pseudomonas aeruginosa [3] (read-out: MIC), 238 µM (≈ 64 µg/mL); in the assay on Klebsiella pneumoniae it was 238 µM (≈ 64 µg/mL).

Turning to `O=C(NNCN1CCNCC1)c1ccncc1`, the MIC entry in the assay with Staphylococcus aureus [1], in the assay on Bacillus spizizenii, with Escherichia coli [2], in the assay on Pseudomonas aeruginosa [3] and in the assay with Klebsiella pneumoniae was “inactive” in each case.

On to `O=C(O)CC1(CNCCN2CCN(c3cc4c(cc3F)c(=O)c(C(=O)O)cn4C3CC3)CC2)CCCCC1`, for which the MIC turned out to be 30.2 µM in the assay on Staphylococcus aureus [1]; 30.2 µM against Bacillus spizizenii; 7.5 µM (≈ 3.96 µg/mL) with Escherichia coli [2] (read-out: MIC); 15.1 µM (≈ 7.98 µg/mL) in the assay on Pseudomonas aeruginosa [3] (read-out: MIC); 7.5 µM (≈ 3.96 µg/mL) against Klebsiella pneumoniae; 30.2 µM (≈ 16 µg/mL) in the assay with Staphylococcus aureus [6]. For the same compound, the MIC against Escherichia coli [4] and with Pseudomonas aeruginosa [5] was 3.7 µM throughout.

For `O=C(O)c1ccc(NCCN2CCN(c3cc4c(cc3F)c(=O)c(C(=O)O)cn4C3CC3)CC2)cc1`, the MIC was 2 µM in the assay with Staphylococcus aureus [1]; 2 µM in the assay on Bacillus spizizenii; 1 µM (≈ 0.495 µg/mL) in the assay on Escherichia coli [2] (read-out: MIC); 1 µM (≈ 0.495 µg/mL) in the assay on Pseudomonas aeruginosa [3] (read-out: MIC); 2 µM (≈ 0.989 µg/mL) against Klebsiella pneumoniae; 16.1 µM (≈ 7.96 µg/mL) against Staphylococcus aureus [6]. Also, the MIC against Escherichia coli [4] and with Pseudomonas aeruginosa [5] was 1 µM in each case.

Consider `O=C(O)c1cn(C2CC2)c2cc(N3CCNCC3)c(F)cc2c1=O` [CIPROFLOXACIN], for which the MIC with Staphylococcus aureus [1] and in the assay with Bacillus spizizenii was 8 µg/mL in each case.

As to `COc1nc(NNC(=O)c2ccncc2)nc(N2CCNCC2)n1`, the MIC was determined as 49.2 µM with Staphylococcus aureus [1]; 49.2 µM with Bacillus spizizenii; 98.4 µM (≈ 32.5 µg/mL) in the assay on Escherichia coli [2] (read-out: MIC); 98.4 µM (≈ 32.5 µg/mL) in the assay on Pseudomonas aeruginosa [3] (read-out: MIC); 197 µM (≈ 65 µg/mL) in the assay on Klebsiella pneumoniae.

Turning to `NS(=O)(=O)c1ccc(NCCN2CCN(c3cc4c(cc3F)c(=O)c(C(=O)O)cn4C3CC3)CC2)cc1`, the MIC is 3.7 µM in the assay with Staphylococcus aureus [1]; 3.7 µM with Bacillus spizizenii; 7.5 µM (≈ 3.97 µg/mL) in the assay on Escherichia coli [2] (read-out: MIC); 7.5 µM (≈ 3.97 µg/mL) in the assay on Pseudomonas aeruginosa [3] (read-out: MIC); 7.5 µM (≈ 3.97 µg/mL) in the assay with Klebsiella pneumoniae; 3.7 µM (≈ 1.96 µg/mL) in the assay with Staphylococcus aureus [6]. The MIC with Streptococcus pyogenes amounted to 3.7 µM; against Escherichia coli [4], 7.5 µM; against Pseudomonas aeruginosa [5], 7.5 µM.

For `O=C(NNCCN1CCN(c2cc3c(cc2F)c(=O)c(C(=O)O)cn3C2CC2)CC1)c1ccncc1`, the MIC was found to be 1 µM against Staphylococcus aureus [1]; 1 µM with Bacillus spizizenii; 4 µM (≈ 1.98 µg/mL) with Escherichia coli [2] (read-out: MIC); 4 µM (≈ 1.98 µg/mL) in the assay on Pseudomonas aeruginosa [3] (read-out: MIC); 4 µM (≈ 1.98 µg/mL) against Klebsiella pneumoniae; 4 µM (≈ 1.98 µg/mL) in the assay with Staphylococcus aureus [6]. The MIC in the assay with Streptococcus pyogenes, with Escherichia coli [4] and in the assay on Pseudomonas aeruginosa [5] was 8 µM each time.

Take `NS(=O)(=O)c1ccc(NCN2CCN(c3cc4c(cc3F)c(=O)c(C(=O)O)cn4C3CC3)CC2)cc1`: the MIC in the assay with Staphylococcus aureus [1] worked out at 0.9 µM; against Bacillus spizizenii, 0.9 µM; in the assay with Escherichia coli [2] (read-out: MIC), 1.9 µM (≈ 0.98 µg/mL); in the assay with Pseudomonas aeruginosa [3] (read-out: MIC) it was 1.9 µM (≈ 0.98 µg/mL); against Klebsiella pneumoniae, 1.9 µM (≈ 0.98 µg/mL); in the assay on Staphylococcus aureus [6], 7.7 µM (≈ 3.97 µg/mL). The MIC in the assay on Streptococcus pyogenes, against Escherichia coli [4] and with Pseudomonas aeruginosa [5] was 7.7 µM throughout.

Turning to `NS(=O)(=O)c1ccc(NCN2CCNCC2)cc1`, the MIC result in the assay with Staphylococcus aureus [1], in the assay on Bacillus spizizenii, in the assay on Escherichia coli [2], in the assay with Pseudomonas aeruginosa [3] and with Klebsiella pneumoniae was “inactive” in each case.

On to `NS(=O)(=O)c1ccc(NC(=O)CC2(CNCN3CCN(c4cc5c(cc4F)c(=O)c(C(=O)O)cn5C4CC4)CC3)CCCCC2)cc1`, for which the MIC is 1.4 µM with Staphylococcus aureus [1]; 1.4 µM in the assay on Bacillus spizizenii; 0.7 µM (≈ 0.468 µg/mL) in the assay with Escherichia coli [2] (read-out: MIC); 0.7 µM (≈ 0.468 µg/mL) in the assay on Pseudomonas aeruginosa [3] (read-out: MIC); 0.7 µM (≈ 0.468 µg/mL) in the assay on Klebsiella pneumoniae; 0.74 µM (≈ 0.495 µg/mL) with Staphylococcus aureus [6]. Besides, the MIC in the assay with Escherichia coli [4] and in the assay with Pseudomonas aeruginosa [5] was 0.74 µM each time.

In the case of `Nc1ccc(C(=O)O)cc1`, the MIC result with Staphylococcus aureus [1], in the assay on Bacillus spizizenii, with Escherichia coli [2] and in the assay with Pseudomonas aeruginosa [3] was “inactive” each time.

Regarding `O=C(O)c1ccc(NCN2CCNCC2)cc1`, the MIC in the assay on Staphylococcus aureus [1] came to 272 µM; with Bacillus spizizenii, 272 µM; against Escherichia coli [2] it was 1090 µM (≈ 256 µg/mL); in the assay with Pseudomonas aeruginosa [3] it was 1090 µM (≈ 256 µg/mL); against Klebsiella pneumoniae it was 1090 µM (≈ 256 µg/mL).

Turning to `O=C(O)c1ccc(NCN2CCN(c3cc4c(cc3F)c(=O)c(C(=O)O)cn4C3CC3)CC2)cc1`, the MIC against Staphylococcus aureus [1] was found to be 16.6 µM; in the assay with Bacillus spizizenii it was 16.6 µM; in the assay on Escherichia coli [2] (read-out: MIC) it was 8.3 µM (≈ 3.99 µg/mL); with Pseudomonas aeruginosa [3] (read-out: MIC) it was 8.3 µM (≈ 3.99 µg/mL); in the assay on Klebsiella pneumoniae it was 16.6 µM (≈ 7.98 µg/mL); in the assay with Staphylococcus aureus [6], 66.5 µM (≈ 32 µg/mL). Besides, the MIC in the assay with Streptococcus pyogenes, with Escherichia coli [4] and against Pseudomonas aeruginosa [5] was 8.3 µM in each case.
